Values quoted from earlier work, collected in US10779561B2, “Resveratrol solubility” (AQUANOVA AG, priority 2016, dated 2020).

Key:
NFκ-b = conditions: in-vitro conditions
rats = conditions: several in-vivo studies in rats

Oc1ccc(C=Cc2cc(O)cc(O)c2)cc1 [resveratrol]
effect on nuclear translocation of NFκ-b (NFκ-b): inhibits the nuclear translocation of NFκ-b | neuro-protective effect (rats): neuro-protective effect
